This note sets out measurements from US7282344B2, “Cation conducting GABAA receptors and their use” (Neurosearch A/S, priority 2001, dated 2007).

The target in this experiment is T1, GABAA receptor α2 β3 γ2 (wt) (Homo sapiens, UniProt P18507+P28472+P47869).
T1 construct: expressed in transfected cells; host or cells: CHO-K1 (ATCC No. CCL61)
Briefly: [^3H]-Muscimol binding, wild-type receptor. To be noted: wt α2 β3 γ2, membranes from CHO-K1 cells. On the procedure: Binding studies were performed using standard methods. Membranes were prepared from CHO-K1 cells expressing recombinant GABAAR subunits. The cells were washed in PBS (Life Technologies), trypsinized, washed twice in tris-citrate buffer (50 mM, pH 7.1) and centrifuged for 10 minutes at 5,000 g.
Membranes were resuspended in membrane wash buffer [20 mM KH2PO4K2HPO4, pH 7.5, 50 mM KCl, 0.025% (w/v) NaN3, and various protease inhibitors (1 mM EDTA, 2 mM benzamidine chloride, 0.1 mM benzethonium chloride, 50 U/ml bacitracin, 0.3 mM phenylmethylsulfonyl fluoride, 10 mg/I ovomucoid trypsin inhibitor, 10 mg/l soybean trypsin inhibitor)] and centrifuged for 30 minutes at 177,000 g and 4° C. The pellet was resuspended in binding assay buffer (20 mM KH2PO4/K2HPO4, pH 7.5 and 100 mM KCl) to a protein concentration of 1 mg/ml and homogenized just before use. Binding was performed with 1, 3, 10, 30, 100 or 300 nM of [^3H]-muscimol (20 Ci/mmol, Dupont-New England Nuclear) in triplicate in a final volume of 250 μl containing 200 μg of protein, and non-specific binding was determined in the presence of 1 mM GABA (Sigma). Samples were incubated at 4° C. for 30 minutes and labelled membranes were harvested on a Brandel cell harvester using GF/B filters (Whatman). The filters were washed with 3×4 ml binding assay buffer and the amount of radioactivity was determined by liquid scintillation counting. […]

T1 sequence (P47869 29-451): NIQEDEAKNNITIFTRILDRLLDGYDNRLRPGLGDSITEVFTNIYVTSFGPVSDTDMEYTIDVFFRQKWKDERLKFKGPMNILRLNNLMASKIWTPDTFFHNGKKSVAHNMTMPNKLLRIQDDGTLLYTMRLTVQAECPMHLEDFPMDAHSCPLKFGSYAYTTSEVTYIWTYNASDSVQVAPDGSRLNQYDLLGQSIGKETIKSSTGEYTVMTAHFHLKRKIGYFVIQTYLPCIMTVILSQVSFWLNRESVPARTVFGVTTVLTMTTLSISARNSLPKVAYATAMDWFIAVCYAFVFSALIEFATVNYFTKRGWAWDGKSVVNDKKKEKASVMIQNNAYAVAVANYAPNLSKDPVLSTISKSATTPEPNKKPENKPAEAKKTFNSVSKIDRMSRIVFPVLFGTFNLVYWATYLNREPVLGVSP
T1 sequence (P28472 26-473): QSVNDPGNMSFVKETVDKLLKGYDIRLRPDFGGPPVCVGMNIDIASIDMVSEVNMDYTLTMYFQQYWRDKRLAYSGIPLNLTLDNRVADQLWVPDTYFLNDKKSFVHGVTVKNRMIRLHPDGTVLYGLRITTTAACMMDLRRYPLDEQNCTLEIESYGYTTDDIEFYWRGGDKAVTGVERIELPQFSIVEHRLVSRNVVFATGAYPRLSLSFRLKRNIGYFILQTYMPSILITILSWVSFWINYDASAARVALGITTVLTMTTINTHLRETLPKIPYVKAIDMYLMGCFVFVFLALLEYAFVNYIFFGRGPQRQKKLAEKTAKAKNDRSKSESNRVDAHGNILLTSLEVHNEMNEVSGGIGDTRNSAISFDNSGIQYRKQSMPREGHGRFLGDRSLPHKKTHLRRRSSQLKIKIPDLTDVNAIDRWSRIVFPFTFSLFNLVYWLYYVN
T1 sequence (P18507 40-475): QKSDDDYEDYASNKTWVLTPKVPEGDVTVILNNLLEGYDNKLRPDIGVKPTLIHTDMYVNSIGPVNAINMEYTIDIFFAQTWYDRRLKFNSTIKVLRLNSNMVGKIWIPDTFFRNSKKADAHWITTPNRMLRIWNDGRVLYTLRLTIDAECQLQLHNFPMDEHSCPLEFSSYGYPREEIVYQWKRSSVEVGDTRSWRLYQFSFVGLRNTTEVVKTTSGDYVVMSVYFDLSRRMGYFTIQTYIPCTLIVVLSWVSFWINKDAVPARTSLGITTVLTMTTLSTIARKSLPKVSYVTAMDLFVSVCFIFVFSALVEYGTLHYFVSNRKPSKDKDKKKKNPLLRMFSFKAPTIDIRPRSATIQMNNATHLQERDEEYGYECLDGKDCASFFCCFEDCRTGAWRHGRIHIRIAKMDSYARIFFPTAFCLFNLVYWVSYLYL

In the case of `NCc1cc(=O)[nH]o1` [[^3H] Muscimol, Muscimol], the Kd (in general, the concentration at which binding is half-saturated) is 54.7 ± 14.7 nM.
